# According to patent publication US9446039B2, “Aminoheteroaryl compounds as MTH1 inhibitors” (CEMM—FORSCHUNGSZENTRUM FÜR MOLEKULARE MEDIZIN GMBH, priority 2012, dated 2016):
# Key:
# Format in all cases: binding
# [1] = target: T1, SW480 colon carcinoma cells lysate proteins (Homo sapiens, UniProt Q01844); settings: PreyGene EWSR1; SW480 cells
# T1 sequence (Q01844 1-656): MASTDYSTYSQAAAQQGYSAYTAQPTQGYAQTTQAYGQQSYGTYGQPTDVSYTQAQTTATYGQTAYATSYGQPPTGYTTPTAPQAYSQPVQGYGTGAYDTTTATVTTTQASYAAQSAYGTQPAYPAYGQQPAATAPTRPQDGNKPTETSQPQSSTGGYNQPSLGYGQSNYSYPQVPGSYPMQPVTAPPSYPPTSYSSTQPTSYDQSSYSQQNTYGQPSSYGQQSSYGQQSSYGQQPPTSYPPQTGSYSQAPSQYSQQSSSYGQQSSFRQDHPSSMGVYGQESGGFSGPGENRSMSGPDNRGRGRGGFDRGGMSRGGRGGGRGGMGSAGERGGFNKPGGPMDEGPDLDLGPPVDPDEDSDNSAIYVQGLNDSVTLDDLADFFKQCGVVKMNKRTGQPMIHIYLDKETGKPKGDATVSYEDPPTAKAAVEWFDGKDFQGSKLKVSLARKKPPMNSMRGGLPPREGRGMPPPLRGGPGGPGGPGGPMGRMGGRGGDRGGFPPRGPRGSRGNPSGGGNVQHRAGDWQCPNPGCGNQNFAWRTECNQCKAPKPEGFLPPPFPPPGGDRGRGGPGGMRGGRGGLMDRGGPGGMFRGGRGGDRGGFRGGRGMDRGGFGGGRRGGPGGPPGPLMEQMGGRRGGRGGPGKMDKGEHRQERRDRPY
# [2] = target: T2, SW480 colon carcinoma cells lysate proteins (Homo sapiens, UniProt P04075); settings: PreyGene ALDOA
# T2 sequence (P04075 1-364): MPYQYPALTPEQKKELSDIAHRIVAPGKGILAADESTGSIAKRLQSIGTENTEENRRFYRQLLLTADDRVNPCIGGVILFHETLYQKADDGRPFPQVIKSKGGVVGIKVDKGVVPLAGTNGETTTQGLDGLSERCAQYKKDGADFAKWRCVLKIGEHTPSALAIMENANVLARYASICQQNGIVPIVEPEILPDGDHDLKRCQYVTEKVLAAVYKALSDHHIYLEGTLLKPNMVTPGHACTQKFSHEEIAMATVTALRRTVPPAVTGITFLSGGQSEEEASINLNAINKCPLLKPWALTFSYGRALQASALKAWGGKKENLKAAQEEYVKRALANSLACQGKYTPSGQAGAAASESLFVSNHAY
# [3] = target: SW480 colon carcinoma cells lysate proteins (Homo sapiens, UniProt P62136); settings: PreyGene PPP1CA
# [4] = target: SW480 colon carcinoma cells lysate proteins (Homo sapiens, UniProt P28070); settings: PreyGene PSMB4
# [5] = target: SW480 colon carcinoma cells lysate proteins (Homo sapiens, UniProt Q9Y490); settings: PreyGene TLN1
# [6] = target: T3, SW480 colon carcinoma cells lysate proteins (Homo sapiens, UniProt P54577); settings: PreyGene YARS
# T3 sequence (P54577 1-528): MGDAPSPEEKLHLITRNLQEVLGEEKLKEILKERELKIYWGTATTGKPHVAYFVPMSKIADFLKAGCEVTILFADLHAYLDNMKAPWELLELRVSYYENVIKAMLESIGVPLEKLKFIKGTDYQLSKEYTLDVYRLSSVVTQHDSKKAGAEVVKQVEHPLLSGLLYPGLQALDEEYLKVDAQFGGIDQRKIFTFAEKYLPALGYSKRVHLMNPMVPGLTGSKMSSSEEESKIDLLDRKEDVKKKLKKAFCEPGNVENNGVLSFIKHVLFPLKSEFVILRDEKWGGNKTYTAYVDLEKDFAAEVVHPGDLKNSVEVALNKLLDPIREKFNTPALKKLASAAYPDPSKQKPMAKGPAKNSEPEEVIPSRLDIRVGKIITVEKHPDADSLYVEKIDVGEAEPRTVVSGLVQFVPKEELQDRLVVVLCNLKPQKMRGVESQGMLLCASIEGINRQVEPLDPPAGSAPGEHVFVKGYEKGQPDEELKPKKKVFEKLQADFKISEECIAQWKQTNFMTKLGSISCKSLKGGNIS
# [7] = target: T4, SW480 colon carcinoma cells lysate proteins (Homo sapiens, UniProt P30101); settings: PreyGene PDIA3
# T4 sequence (P30101 25-505): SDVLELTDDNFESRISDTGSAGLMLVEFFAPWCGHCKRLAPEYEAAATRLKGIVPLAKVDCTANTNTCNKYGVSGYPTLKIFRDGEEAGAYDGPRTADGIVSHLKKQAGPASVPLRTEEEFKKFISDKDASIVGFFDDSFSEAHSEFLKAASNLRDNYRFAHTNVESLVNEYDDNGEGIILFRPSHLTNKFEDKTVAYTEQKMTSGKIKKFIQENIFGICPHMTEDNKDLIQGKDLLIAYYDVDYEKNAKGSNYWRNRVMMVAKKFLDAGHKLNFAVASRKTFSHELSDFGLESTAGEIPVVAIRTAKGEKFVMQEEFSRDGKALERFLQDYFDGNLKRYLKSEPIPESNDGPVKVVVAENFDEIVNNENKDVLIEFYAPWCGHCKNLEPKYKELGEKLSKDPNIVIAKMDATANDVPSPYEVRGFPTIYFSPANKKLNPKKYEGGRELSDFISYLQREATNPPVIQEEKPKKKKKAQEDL
# Chain of SW480 colon carcinoma cells lysate proteins (Homo sapiens, UniProt P28070) (P28070 46-264): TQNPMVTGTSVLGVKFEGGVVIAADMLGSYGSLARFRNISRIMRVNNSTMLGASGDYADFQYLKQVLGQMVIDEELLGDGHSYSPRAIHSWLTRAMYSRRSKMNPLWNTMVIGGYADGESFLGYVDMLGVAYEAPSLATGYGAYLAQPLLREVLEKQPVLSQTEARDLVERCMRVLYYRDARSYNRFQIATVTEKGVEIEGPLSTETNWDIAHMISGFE
# Chain of SW480 colon carcinoma cells lysate proteins (Homo sapiens, UniProt P62136) (P62136 whole entry): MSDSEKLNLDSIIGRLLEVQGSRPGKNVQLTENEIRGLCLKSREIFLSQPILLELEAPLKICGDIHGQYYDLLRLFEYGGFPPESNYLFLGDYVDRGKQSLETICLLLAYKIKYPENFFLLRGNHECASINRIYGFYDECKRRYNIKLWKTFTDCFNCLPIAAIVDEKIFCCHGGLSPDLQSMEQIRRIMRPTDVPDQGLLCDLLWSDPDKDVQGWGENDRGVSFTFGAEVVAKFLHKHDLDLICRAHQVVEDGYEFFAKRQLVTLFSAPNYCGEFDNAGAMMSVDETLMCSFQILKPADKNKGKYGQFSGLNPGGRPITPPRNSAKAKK
# Chain of SW480 colon carcinoma cells lysate proteins (Homo sapiens, UniProt Q9Y490) (Q9Y490 whole entry): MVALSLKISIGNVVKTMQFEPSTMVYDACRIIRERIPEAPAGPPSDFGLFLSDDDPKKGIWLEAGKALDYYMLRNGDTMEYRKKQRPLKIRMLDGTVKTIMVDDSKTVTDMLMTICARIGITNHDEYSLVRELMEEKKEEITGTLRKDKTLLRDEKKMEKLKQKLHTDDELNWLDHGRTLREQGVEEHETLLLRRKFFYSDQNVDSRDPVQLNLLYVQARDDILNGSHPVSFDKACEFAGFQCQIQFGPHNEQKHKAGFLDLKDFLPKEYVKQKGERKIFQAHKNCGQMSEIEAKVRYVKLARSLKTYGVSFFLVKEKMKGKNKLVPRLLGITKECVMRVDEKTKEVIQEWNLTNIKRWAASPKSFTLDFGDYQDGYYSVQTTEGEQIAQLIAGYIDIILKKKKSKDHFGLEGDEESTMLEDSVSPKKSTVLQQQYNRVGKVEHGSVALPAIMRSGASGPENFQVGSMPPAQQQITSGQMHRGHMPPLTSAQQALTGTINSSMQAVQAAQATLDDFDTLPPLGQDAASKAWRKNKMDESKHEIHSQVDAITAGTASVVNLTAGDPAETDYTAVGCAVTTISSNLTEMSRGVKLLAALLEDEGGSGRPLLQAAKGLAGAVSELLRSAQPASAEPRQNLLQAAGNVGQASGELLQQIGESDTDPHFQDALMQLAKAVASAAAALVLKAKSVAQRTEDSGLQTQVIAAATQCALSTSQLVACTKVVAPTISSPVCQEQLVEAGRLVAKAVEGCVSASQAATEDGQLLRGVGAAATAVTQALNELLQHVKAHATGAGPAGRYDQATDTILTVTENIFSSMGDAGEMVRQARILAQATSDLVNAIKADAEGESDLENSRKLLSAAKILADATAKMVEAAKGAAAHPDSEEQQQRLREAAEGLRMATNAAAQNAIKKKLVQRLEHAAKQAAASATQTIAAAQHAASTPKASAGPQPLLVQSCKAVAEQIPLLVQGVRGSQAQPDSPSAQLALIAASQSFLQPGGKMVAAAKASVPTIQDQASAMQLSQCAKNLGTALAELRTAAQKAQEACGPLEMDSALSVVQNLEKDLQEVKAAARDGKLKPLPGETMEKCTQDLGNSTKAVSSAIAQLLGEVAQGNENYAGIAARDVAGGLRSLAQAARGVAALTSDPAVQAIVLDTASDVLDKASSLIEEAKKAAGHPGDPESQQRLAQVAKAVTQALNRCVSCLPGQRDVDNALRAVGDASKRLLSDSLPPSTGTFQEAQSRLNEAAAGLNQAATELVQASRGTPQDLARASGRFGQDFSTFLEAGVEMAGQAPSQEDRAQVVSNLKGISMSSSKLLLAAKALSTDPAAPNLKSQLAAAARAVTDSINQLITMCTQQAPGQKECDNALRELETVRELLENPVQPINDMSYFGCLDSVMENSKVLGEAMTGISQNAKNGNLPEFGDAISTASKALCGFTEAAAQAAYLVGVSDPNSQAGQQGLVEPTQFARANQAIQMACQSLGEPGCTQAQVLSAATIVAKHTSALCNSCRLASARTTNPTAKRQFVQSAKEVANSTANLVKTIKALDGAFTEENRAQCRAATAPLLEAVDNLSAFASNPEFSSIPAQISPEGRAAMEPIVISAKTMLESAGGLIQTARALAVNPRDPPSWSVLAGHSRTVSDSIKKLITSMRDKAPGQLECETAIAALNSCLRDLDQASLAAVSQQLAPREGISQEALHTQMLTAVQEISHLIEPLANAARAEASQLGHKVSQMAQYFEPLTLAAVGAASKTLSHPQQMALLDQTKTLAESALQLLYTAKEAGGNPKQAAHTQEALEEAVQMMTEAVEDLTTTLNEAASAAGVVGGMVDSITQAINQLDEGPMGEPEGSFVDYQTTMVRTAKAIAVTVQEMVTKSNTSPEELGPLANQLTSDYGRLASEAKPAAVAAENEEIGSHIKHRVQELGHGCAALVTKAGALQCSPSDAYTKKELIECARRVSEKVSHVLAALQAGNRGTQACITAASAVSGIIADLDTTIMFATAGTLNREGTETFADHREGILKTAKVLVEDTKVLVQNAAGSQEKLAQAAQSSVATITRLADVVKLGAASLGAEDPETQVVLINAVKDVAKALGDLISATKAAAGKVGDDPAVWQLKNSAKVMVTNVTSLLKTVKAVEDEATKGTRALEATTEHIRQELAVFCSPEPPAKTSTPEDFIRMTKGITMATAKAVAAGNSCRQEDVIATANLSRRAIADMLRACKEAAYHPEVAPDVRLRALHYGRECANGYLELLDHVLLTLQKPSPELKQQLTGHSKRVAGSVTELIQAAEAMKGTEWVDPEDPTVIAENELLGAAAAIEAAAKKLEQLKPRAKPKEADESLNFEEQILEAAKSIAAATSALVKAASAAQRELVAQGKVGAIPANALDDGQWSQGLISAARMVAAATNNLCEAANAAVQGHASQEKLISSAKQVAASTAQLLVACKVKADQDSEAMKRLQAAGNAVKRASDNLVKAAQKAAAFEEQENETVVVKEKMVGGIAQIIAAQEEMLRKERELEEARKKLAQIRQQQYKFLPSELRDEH
compound,measurement,setting,value
C[C@H](Oc1cc(-c2cnn(C3CCNCC3)c2)cnc1N)c1c(Cl)ccc(F)c1Cl [(5)-crizotinib],AvgP,[1],0
same,SC.Exp. 1-1,[1],0
same,SC.Exp. 1-2,[1],1
same,SC.Exp. 2-1,[1],0
same,SC.Exp. 2-2,[1],0
same,SC.Exp. Sum,[1],1
same,AvgP,[2],0.2283
same,SC.Exp. 1-1,[2],12
same,SC.Exp. 1-2,[2],12
same,SC.Exp. 2-1,[2],2
same,SC.Exp. 2-2,[2],0
same,Sum (SC.Exp.),[2],26
same,AvgP,[3],0.3721
same,SC.Exp. 1-1,[3],2
same,SC.Exp. 1-2,[3],2
same,SC.Exp. 2-1,[3],0
same,SC.Exp. 2-2,[3],0
same,Sum (SC.Exp.),[3],4
same,AvgP,[4],0.1875
same,SC.Exp. 1-1,[4],2
same,SC.Exp. 1-2,[4],0
same,SC.Exp. 2-1,[4],0
same,SC.Exp. 2-2,[4],0
same,Sum (SC.Exp.),[4],2
same,AvgP,[5],0.4939
same,SC.Exp. 1-1,[5],7
same,SC.Exp. 1-2,[5],7
same,SC.Exp. 2-1,[5],0
same,SC.Exp. 2-2,[5],0
same,Sum (SC.Exp.),[5],14
same,AvgP,[6],0.2511
same,SC.Exp. 1-1,[6],2
same,SC.Exp. 1-2,[6],1
same,SC.Exp. 2-1,[6],0
same,SC.Exp. 2-2,[6],0
same,Sum (SC.Exp.),[6],3
same,AvgP,[7],0.4952
same,SC.Exp. 1-1,[7],8
same,SC.Exp. 1-2,[7],7
same,SC.Exp. 2-1,[7],0
same,SC.Exp. 2-2,[7],0
same,Sum (SC.Exp.),[7],15
